Reference: patent US11339417B2, “Amplifier system and controls for dielectrophoretic tracking in microfluidic devices” (University of Virginia Patent Foundation, priority 2014, dated 2022)
“And” between values parts separate entries of the source, which are not always exact repeats. Equal values may be shown once.

Legend:
[1] = system: Cryptosporidium parvum oocysts; test: Excystation of oocysts after disinfection treatment; assay type: cell-based; details: oocysts treated with 100 mg L^−1 for 4 hours; untreated 89.5%
Experimental: For treatment with silver nanoparticles (AgNPs), the animal infectivity experiment was done after the oocysts were treated with 100 mg L^−1 proteinate capped AgNPs (Argenol) (˜15 nm) for 4 hours.
After each disinfection treatment, the oocysts were treated with 10% bleach (Bleach-Rite) for 30 minutes in a micro-centrifuge tube at room temperature, followed by vortexing every 10 minutes. The suspension was incubated in a microfluidic chamber with a glass cover-slip for an hour, for real-time recording of the excystation; i.e. release of sporozoites from the oocyst. The excystation was examined by inverted microscopy using 63× oil immersion phase and DIC objectives. […] The percentage of the excystation was calculated as: (# of excysted oocytsl # of total oocyst)×100.^29 For mouse model infectivity studies,^12 all mice were malnourished for a period of 13 days before experiments. For every six mice fed with the oocysts for each treatment, three other mice were fed with untreated oocysts as positive control.

[2] = system: Cryptosporidium parvum oocysts; test: Dielectrophoretic characterization of oocysts (DEP tracking, single shell model fit); assay type: cell-based; details: 100 mg L^−1 for 4 hours
[3] = system: C. difficile VPI11186 (non-toxigenic, NTCD); test: Growth measurement (OD600), NTCD strain; assay type: cell-based, Clostridium difficile
Experimental: (§1) Growth measurement. 250 μL of the overnight cultured bacteria suspension and 750 μL of the BHI broth, with or without vancomycin were mixed in Eppendorf tubes. The optical density at a wavelength of 600 nm (OD600) of the mixed bacteria suspensions, measured by Spectrophotometry (Eppendorf Biophotometer) before incubation, was indexed as the “0 hour” time point. The OD600 number at later time points (4 and 24 hours) for respective strain at each condition was normalized to its 0 hour point.
(§2) In order to evaluate the sensitivity of DEP methods versus the current state of the art, we benchmark the DEP velocity data for HTCD and NTCD C. difficile strains after various levels of antibiotic treatment versus conventional diagnostic measures for the loss of C. difficile functionality, such as toxin production and growth rate values. To enable the comparison of DEP data across the range of C. difficile strains, we choose a frequency of 1 MHz, since all strains show some level of pDEP before and after antibiotic treatment. For measurements of alteration in toxin production level and growth rate of C. difficile strains after antibiotic treatment, it is necessary to culture the microbial cells with the antibiotic over a period of 4-24 hours, to enable sufficient sensitivity for the measurements. […] Furthermore, the results after antibiotic treatment for a particular period of time are compared against their respective values on untreated microbials for the same period of culture time (this control value for each treatment time is indicated as “Un-0”, “Un-4” or “Un-24” in FIGS. 15c-15e).

[4] = system: C. difficile VPI10463 (high-toxigenic, HTCD); test: Growth measurement (OD600), HTCD strain; assay type: cell-based, Clostridium difficile
Experimental: as §1, §2

[5] = system: C. difficile VPI10463 (high-toxigenic, HTCD); test: Dielectrophoretic (DEP) characterization of C. difficile HTCD strain after vancomycin treatment; assay type: cell-based, Clostridium difficile
Experimental: Bacteria strains preparation. II three C. difficile strains were purchased from ATCC. The bacteria were cultured in brain heart infusion (BHI) broth (BD BBL Brain Heart Infusion) at 37° C. overnight under anaerobic condition before further antibiotic treatment or dielectrophoretic experiments. 250 μL of the overnight cultured bacteria suspension and 750 μL of the BHI with vancomycin (Novaplus) or without vancomycin for the control groups were mixed in Eppendorf tubes and incubated at 37° C. for 4 hours or 24 hours. The vancomycin concentration for VPI10463 (high-toxigenic, HTCD) was 2 mg/mL and 1 mg/mL for ATCC630 (low-toxigenic, LTCD) and VPI11186 (non-toxigenic, NTCD). Prior to the dielectrophoresis experiments, the BHI broth was replaced with 8.8% sucrose water and re-adjusted with BHI broth to optimize the medium conductivity 105±5% mS/m for enabling DEP-based distinction of C. difficile strains from mixed samples. All three strains were confirmed to be viable within this altered BHI media over the timeframe of the DEP experiments, as per the colony forming unit (CFU) assay.
Dielectrophoretic characterization of C. difficile. The experimental setup has been described in our prior work. Briefly, Standard PDMS (Poly-di-methyl-siloxane) micro-molding methods were used to micro-fabricate channels with sharp lateral constrictions (1000 μm to 15 μm). […] The trajectory of the unlabeled C. difficile of each strain type was observed under this field, as high frame per second movies to quantify the DEP velocity. For experiments within mixed C. difficile samples, the trapped microbials were released and analyzed with the immunoassay to confirm toxigenicity. […]
(§3) FIGS. 2a and 2b show the electrode-less device with external electrodes (1 cm apart) to initiate localized microbial trapping in the constriction region. […] In this manner, as per prior work^33, the translational velocity under the DEP trapping force is measured for ˜20 individual microbial cells to quantify the DEP spectra. […]

[6] = system: C. difficile VPI10463 (high-toxigenic, HTCD); test: Toxicity enzyme-linked immunosorbent assay, total toxin (A/B) production; assay type: cell-based, Clostridium difficile
Experimental: Toxicity enzyme-linked immunosorbent assay. Total toxin (A/B) production was measured using the C. difficile TOX A/B II kit (Tech-Lab) according to the manufacturer's instructions. Culture supernatants were collected at 0, 4 and 24 hours by centrifugation at 3500 rcf for 5 min and stored at −20° C. The supernatants of the VPI110463 strain were diluted 1 to 20, while the supernatants of the VPI11186 strain were undiluted. Each specimen was run in duplicate. Total toxin levels were determined by measuring A450 under a 96 well plate spectrophotometry. The A450 number at each time point (4 hours and 24 hours) of each strain at each condition was normalized to its 0 hour time point.
as §2

[7] = system: C. difficile VPI11186 (non-toxigenic, NTCD); test: Dielectrophoretic (DEP) characterization of C. difficile NTCD strain after vancomycin treatment; assay type: cell-based, Clostridium difficile
Experimental: (§4) Bacteria strains preparation. II three C. difficile strains were purchased from ATCC. The bacteria were cultured in brain heart infusion (BHI) broth (BD BBL Brain Heart Infusion) at 37° C. overnight under anaerobic condition before further antibiotic treatment or dielectrophoretic experiments. 250 μL of the overnight cultured bacteria suspension and 750 μL of the BHI with vancomycin (Novaplus) or without vancomycin for the control groups were mixed in Eppendorf tubes and incubated at 37° C. for 4 hours or 24 hours. The vancomycin concentration for VPI10463 (high-toxigenic, HTCD) was 2 mg/mL and 1 mg/mL for ATCC630 (low-toxigenic, LTCD) and VPI11186 (non-toxigenic, NTCD). […]
(§5) Dielectrophoretic characterization of C. difficile. […] The trajectory of the unlabeled C. difficile of each strain type was observed under this field, as high frame per second movies to quantify the DEP velocity. For experiments within mixed C. difficile samples, the trapped microbials were released and analyzed with the immunoassay to confirm toxigenicity. […]
as §3

[8] = system: C. difficile ATCC630 (low-toxigenic, LTCD); test: Dielectrophoretic (DEP) characterization of C. difficile LTCD strain after vancomycin treatment; assay type: cell-based, Clostridium difficile; details: vancomycin 1 mg/mL, untreated 500 kHz
Experimental: as §4, §5, §3

[9] = 4 hours of vancomycin treatment
[10] = 24 hours of vancomycin treatment

Row | Structure (SMILES) | Excystation rate [1] | DEP response of treated versus untreated oocysts at 100 kHz and at 400 kHz [2] | Difference in growth rate versus the untreated sample (Un-4) [3, 9] | Relative growth rate (OD600 normalized to 0 hour) [3, 9] [times] | Difference in growth rate versus the untreated sample (Un-24) [3, 10] | Relative growth rate (OD600 normalized to 0 hour) [3, 10] [times] | Growth rate reduction [4, 9] | Relative growth rate (OD600 normalized to 0 hour) [4, 9] [times] | Difference in growth rate versus the control (Un-24) [4, 10] | Relative growth rate (OD600 normalized to 0 hour) [4, 10] [times] | DEP crossover frequency after vancomycin treatment ([5]; HTCD / hypervirulent TCD strain, vancomycin 2 mg/mL, untreated 300 kHz or 400 kHz) | DEP velocity after vancomycin treatment ([5]; HTCD, 1 MHz, 4 hours of vancomycin treatment, untreated 30.7 μm/s) [μm/s] | DEP behavior at 400 kHz of vancomycin treated cells ([5]; HTCD, 400 kHz, untreated HTCD shows pDEP) | Difference in toxin production level versus the control (Un-4) [6, 9] | Relative toxin production (normalized to 0 hour) [6, 9] [times] | Difference in toxin production level versus the control (Un-24) [6, 10] | Relative toxin production (normalized to 0 hour) [6, 10] | DEP crossover frequency after vancomycin treatment ([7]; NTCD strain, vancomycin 1 mg/mL, untreated 900 kHz) [kHz] | DEP velocity after vancomycin treatment ([7]; NTCD, 1 MHz, 4 hours of vancomycin treatment, untreated 16 μm/s) [μm/s] | DEP crossover frequency after vancomycin treatment [8] [kHz]
1 | O=[N+]([O-])[O-].[Ag+] [AgNO3, silver nitrate] | 71.4% and 70% | not significantly altered | – | – | – | – | – | – | – | – | – | – | – | – | – | – | – | – | – | –
2 | CN[C@H](CC(C)C)C(=O)N[C@H]1C(=O)N[C@@H](CC(N)=O)C(=O)N[C@H]2C(=O)N[C@H]3C(=O)N[C@H](C(=O)N[C@H](C(=O)O)c4cc(O)cc(O)c4-c4cc3ccc4O)[C@H](O)c3ccc(c(Cl)c3)Oc3cc2cc(c3O[C@@H]2O[C@H](CO)[C@@H](O)[C@H](O)[C@H]2O[C@H]2C[C@](C)(N)[C@H](O)[C@H](C)O2)Oc2ccc(cc2Cl)[C@H]1O [vancomycin] | – | – | 0.74 | 1.1 | 3.3 | 1.05 | minimal growth rate reduction | 1.51 | 2.2 | 1.61 | 600 kHz and 900 kHz | 7.6 | some residual level of nDEP and nDEP | 0.55 | 1.05 | 7.5 | small reduction | 600 | ~7 | 300
